Data taken from PMC6270453, “One Lignanoid Compound and Four Triterpenoid Compounds with Anti-Inflammatory Activity from the Leaves of Elaeagnus oldhamii Maxim” (Molecules, 2013).
Converted amounts (≈) assume the structure as drawn. “Also recorded” adds a separate entry of the source.

Columns and labels:
RAW264.7 cells = test: Cell viability (MTT) in the presence of LPS; type: cell-based, murine; settings: for Cell Viability (% of Control): RAW264.7, 100 ng/mL LPS, 24 h, MTT, mean ± S.D.
Procedure: (§1) A murine macrophage cell line RAW264.7 (BCRC No. 60001) was purchased from the Bioresources Collection and Research Center (BCRC, Hsinchu, Taiwan) of the Food Industry Research and Development Institute (Hsinchu, Taiwan). Cells were cultured in plastic dishes containing Dulbecco’s Modified Eagle Medium (DMEM, Sigma) supplemented with 10% fetal bovine serum (FBS, Sigma) in a CO2 incubator (5% CO2 in air) at 37 °C and subcultured every 3 days at a dilution of 1:5 using 0.05% trypsin-0.02% EDTA in Ca^2+-, Mg^2+-free phosphate-buffered saline (DPBS).
Cells (2 × 10^5) were cultured in 96-well plate containing DMEM supplemented with 10% FBS for 1 day to become nearly confluent. Then cells were cultured with compounds 1–5 in the presence of 100 ng/mL LPS (lipopolysaccharide) for 24 h. After that, the cells were washed twice with DPBS and incubated with 100 μL of 0.5 mg/mL MTT for 2 h at 37 °C testing for cell viability. The medium was then discarded and 100 μL dimethyl sulfoxide (DMSO) was added. After 30-min incubation, absorbance at 570 nm was read using a microplate reader (Molecular Devices, Sunnyvale, CA, USA).

[1] = tested on: LPS-induced NO production in macrophages (RAW264.7 cells); test: Measurement of nitric oxide/nitrite (Griess reaction) in LPS-stimulated macrophages; type: cell-based, murine; settings: for NO Inhibition (% of Control) / No Level: LPS 100 ng/mL, 24 h, mean ± S.D.; for No Level: nitrite in medium, LPS alone 30.3 ± 2.2, in µM
Procedure: as §1
NO production was indirectly assessed by measuring the nitrite levels in the cultured media and serum determined by a colorimetric method based on the Griess reaction. The cells were incubated with different concentration of samples in the presence of LPS (100 ng/mL) at 37 °C for 24 h. Then, cells were dispensed into 96-well plates, and 100 μL of each supernatant was mixed with the same volume of Griess reagent (1% sulfanilamide, 0.1% naphthylethylenediamine dihydrochloride and 5% phosphoric acid) and incubated at room temperature for 10 min, the absorbance was measured at 540 nm with a Micro-Reader (Molecular Devices). By using sodium nitrite to generate a standard curve, the concentration of nitrite was measured form absorbance at 540 nm.
IC50 values were estimated using a non-linear regression algorithm (Sigma Plot 12.0; SPSS Inc. Chicago, IL, USA). Statistical evaluation was carried out by one-way ANOVA followed by Scheffe’s multiple range tests.

With `COc1cc([C@H]2Oc3cc(/C=C\CO)ccc3O[C@@H]2C)ccc1O` [Compound 1, isoamericanol B] as the compound, how does the “Cell Viability (% of Control)” value (RAW264.7 cells; dose 2.5 μg/mL) read?
Its value is 100.6 ± 5.9 % of Control.

What about the “Cell Viability (% of Control)” value (RAW264.7 cells; dose 5 μg/mL) of the same compound?
The value was 97.6 ± 4.3 % of Control.

What about the “Cell Viability (% of Control)” value (RAW264.7 cells; dose 10 μg/mL) of the same compound?
The value was 90.7 ± 3.3 % of Control.

What about the “Cell Viability (% of Control)” value (RAW264.7 cells; dose 20 μg/mL) of the same compound?
Its value is 88.8 ± 2.6 % of Control.

And the “Change of cell viability (in words)” value (RAW264.7 cells; tested concentrations 2.5 to 20 μg/mL)?
The value was “did not significantly change cell viability; also recorded: did not change significantly cell viability”.

What about the IC50 ([1]; Mus musculus, RAW264.7, 24 h, LPS-stimulated RAW264.7 cells, non-linear regression, read-out: IC50 for inhibition of nitrite production) of the same compound?
Its IC50 is about 10.3 µg/mL (≈ 31.4 µM).

And the “NO Inhibition (% of Control)” value ([1]; dose 2.5 μg/mL)?
The value was 42.0 ± 1.6 % of Control.

And the “No Level” value ([1]; dose 2.5 μg/mL)?
Its value is 17.6 ± 0.5.

What about the “NO Inhibition (% of Control)” value ([1]; dose 5 μg/mL) of the same compound?
The value was 42.3 ± 2.6 % of Control.

And the “No Level” value ([1]; dose 5 μg/mL)?
Its value is 17.5 ± 08.

And the “NO Inhibition (% of Control)” value ([1]; dose 10 μg/mL)?
Its value is 49.7 ± 1.4 % of Control.

What about the “No Level” value ([1]; dose 10 μg/mL) of the same compound?
The value was 15.2 ± 0.4.

And the “NO Inhibition (% of Control)” value ([1]; dose 20 μg/mL)?
The value was 60.4 ± 1.3 % of Control.

And the “No Level” value ([1]; dose 20 μg/mL)?
The value was 12.0 ± 0.4.
